Laboratory results reported in patent US20100305201A1 (The Trustees of the University of Pennsylvania, priority 2006, published 2010).

Assays:
[1] = system: Human lung-derived carcinoma cells A549; assay: Cytotoxicity assay (MTT); assay type: cell-based; details: 72 h, sigmoid dose-response fit
Procedure: Cytotoxicity Assay. TAX-loaded and drug-free micelles at serial dilutions were prepared as above. For comparison, 12 mg/ml TAX in ethanol was mixed with an equal volume of Cremophor® EL followed by sonication for 30 min. The resulting Cremophor EL TAX was diluted with DPBS to obtain desired TAX concentrations. Human lung-derived carcinoma cells A549 were grown in F12 Ham media supplemented with 10% fetal bovine serum and 100 U/ml penicillin and 100 μg/ml streptomycin at 37° C., 5% CO2 to 60-70% confluence. A549 cells (50,000 cell/ml) were seeded in 96-well plates at 5,000 cells per well and cultured for 24 h to allow attachment. […] As control, […] of DPBS was added to cells not exposed to those formulations. After 37° C., 5% CO2 incubation for 72 h, the media were discarded, and 100 μl/well F12 Ham medium and 11 μl/well of 5 mg/ml MTT solution in DPBS was added. The plates were incubated at 37° C. for 3 h and the media were removed again. The intracellular metabolized product MTT formazan was retrieved by addition of 100 μl/well DMSO and incubation at room temperature for 5 min. The plates were read at 550 nm, and the cell viability was calculated as (reading of wells with cells exposed to tested formulations minus the reading of the blank wells) divided by (reading of wells with cells exposed to DPBS minus the reading of the blank wells).
Data Analysis. […]

[2] = system: lung carcinoma A549 tumors; assay: Tumor shrinkage study, multiple injections; assay type: in vivo, mice
Procedure: Tumor shrinkage studies. Human lung carcinoma cell line, A549, was injected subcutaneously at […] per mouse. […] The same injections were repeated after 3, 7, 10, 14, 17 and 21 days. Tumor area (A) was monitored 24 hrs after each injection by measuring two orthogonal dimensions as A=[(L1×L2)/2] for each treatment group. The body weight of the mice was also monitored throughout the experiment.
The tumor shrinkage effect of different carriers was also examined in a multiple-injection experiment. […] TAX in DPBS solution was also used for comparison, with the MTD of 1 mg/kg injected. […] It should be noted here that the weight gaining due to tumor growth (if possible) for all groups was minimal, wherein the largest tumor area gained after 3 weeks was 0.4 cm^2 (FIG. 6A), corresponding to an approximate volume of 0.2 cm^3 (assuming the tumor was spherical in shape). This would have contributed to only 0.2 g of the total weight (assuming the density of tumor is 1 g/ml).
To evaluate the tumor inhibition effect of the different TAX delivery methods in a more quantitative way, the TAX-inhibited tumor growth vs. time plot was fit by applying an exponential model (Simeoni et al., Cancer Res. 64:1094-101 (2004)), incorporating both a tumor growth phase and a tumor shrinkage phase with the TAX addition. The modeling was performed by fit the parameters in the equation (Table 4):
Tumor Area=Σ Ae^t/growth+Be^−t/shrink Equation 7
where t is the time (day), A and tgrowth are constants of the tumor growth phase, and B and tshrink are constants of the TAX-inhibition phase.

[3] = in vivo; details: Nrc nude, mouse
Procedure: (§1) Nrc nude mice were weighed followed by a single tail vein injection of either empty OCL3 micelles and TAX-loaded micelles in different concentrations at 0.2 ml per mouse. After 24 hours, the mice were weighed again. The “maximum tolerated dose” (MTD) was determined to be, and defined as, the dose that caused the mouse body weight loss<10%.

[4] = Maximum tolerated dose (MTD) determination; details: nude mice, dose that causes 10% weight loss within 24 h (Example 3)
Procedure: as §1

[5] = system: A549 tumor xenografts; assay: Tumor study with single tail-vein injection (Example 3); details: one week after single injection, 1 mg kg^−1 in ethanol (MTD)
Procedure: Briefly, cultured cells were injected subcutaneously onto the backs of nude mice and allowed to grow until they reached a mean size of 0.52 cm^2 (±0.02 em^2). […] Each group consisted of four mice.

[6] = exponential model of TAX-inhibited A549 tumor area vs time, injections at MTD

Compound: CC(=O)O[C@H]1C(=O)[C@@]2(C)[C@H]([C@H](OC(=O)c3ccccc3)[C@]3(O)C[C@H](OC(=O)[C@H](O)[C@@H](NC(=O)c4ccccc4)c4ccccc4)C(C)=C1C3(C)C)[C@]1(OC(C)=O)CO[C@@H]1C[C@@H]2O [TAX, Paclitaxel]
- IC50 [1]: 321 nM
- tumor growth inhibition (in words) ([2]; A549-bearing mice, multiple injections at MTD, 22 days): modest inhibition of tumor growth
- A, constant of the tumor growth phase [2, 6]: 0.014 cm^2
- B, constant of the TAX-inhibition phase [2, 6]: 0.178 cm^2
- tgrowth, constant of the tumor growth phase [2, 6]: 1.2 week
- tshrink, constant of the TAX-inhibition phase [2, 6]: 8.8 week
- MTD at 24 h [3]: 1 mg/kg
- maximum tolerated dose (MTD) [4]: 1 mg/kg
- apoptosis in tumor (TUNEL-stained tumor sections) [5]: little effect
